Source: US20260250318A1, “COMPOSITIONS AND METHODS FOR CROSSING THE BLOOD BRAIN BARRIER” (VOYAGER THERAPEUTICS, INC., priority 2022, published 2026)

Key:
[1] = system: brains, heart, liver, muscle, and DRG of the NHPs; experiment: Maturation of TTM-001 and TTM-002 capsids, NGS enrichment in NHP tissues; type: in vivo; details: relative to AAV9 control
Summary of the method: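 Variants carry mutations within and flanking the loop IV peptide insert: positions 450–466 were triplet-randomized, while positions 449–466 received low-frequency point mutations. The combined pool went into two NHPs, and each peptide was scored by NGS enrichment ratio against AAV9.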

[2] = system: brain; experiment: Matured TTM-001 and TTM-002 variants, NGS enrichment in mouse brain; type: in vivo, mice; details: relative to AAV9 control
[3] = NGS fold-enrichment of RNA, NHP brain
[4] = NGS fold-enrichment, DRG of NHPs
[5] = NGS fold-enrichment, NHP liver DNA
[6] = NGS fold-enrichment, NHP liver RNA
[7] = NGS fold-enrichment, NHP muscle
[8] = NGS fold-enrichment, RNA, brain of NHPs
[9] = NGS fold-enrichment, heart of NHPs
[10] = NGS fold-enrichment, liver DNA of NHPs
[11] = NGS fold-enrichment, liver RNA of NHPs
[12] = NGS fold-enrichment, muscle of NHPs
[13] = NGS fold-enrichment, brain of mice
[14] = NGS fold-enrichment, mouse brain
[15] = NGS fold-enrichment of matured AAV capsid variants, NHP brain, RNA

Row | Sequence | Fold Enrichment relative to AAV9, Brain (NHP) [1, 3] | Fold Enrichment relative to AAV9, DRG (NHP) [1, 4] | Fold Enrichment relative to AAV9, DRG (NHP) ([1]; NGS fold-enrichment, NHP DRG) | Fold Enrichment relative to AAV9, Heart (NHP) ([1]; NGS fold-enrichment, NHP heart) | Fold Enrichment relative to AAV9, Liver DNA (NHP) [1, 5] | Fold Enrichment relative to AAV9, Liver RNA (NHP) [1, 6] | Fold Enrichment relative to AAV9, Muscle (NHP) [1, 7] | Fold Enrichment relative to AAV9, Brain (NHP) [1, 8] | Fold Enrichment relative to AAV9, Heart (NHP) [1, 9] | Fold Enrichment relative to AAV9, Liver DNA (NHP) [1, 10] | Fold Enrichment relative to AAV9, Liver RNA (NHP) [1, 11] | Fold Enrichment relative to AAV9, Muscle (NHP) [1, 12] | Fold Enrichment relative to AAV9, Brain (Mouse) [2, 13] | Fold Enrichment relative to AAV9, Brain (Mouse) [2, 14] | other results
1 | KTINGGGSPHSKAQNQLI | 83.881 fold | 0.000 fold | 0.000 fold | 0.000 fold | 0.387 fold | 0.046 fold | 0.000 fold | 83.881 fold | 0.000 fold | 0.387 fold | 0.046 fold | 0.000 fold | 78.383 fold | 78.383 fold | 
2 | KTINGGGSPHSKAQNQMT |  |  |  |  |  |  |  |  |  |  |  |  |  |  | Fold Enrichment relative to AAV9, Brain (NHP) [1, 15]: 55.778 fold; Fold Enrichment relative to AAV9, DRG (NHP) ([1]; NHP DRG): 0.000 fold; Fold Enrichment relative to AAV9, Heart (NHP) ([1]; NHP heart): 0.000 fold; Fold Enrichment relative to AAV9, Liver DNA (NHP) ([1]; NHP liver, DNA): 0.012 fold; Fold Enrichment relative to AAV9, Liver RNA (NHP) ([1]; NHP liver, RNA): 0.866 fold; Fold Enrichment relative to AAV9, Muscle (NHP) ([1]; NHP muscle): 0.000 fold; Fold Enrichment relative to AAV9, Brain (Mouse) ([2]; mouse brain): 73.177 fold
3 | KTINGGGSPHSKAQNQQC | 89.301 fold | 0.219 fold | 0.219 fold | 0.000 fold | 0.319 fold | 0.287 fold | 0.000 fold | 89.301 fold | 0.000 fold | 0.319 fold | 0.287 fold | 0.000 fold | 53.840 fold | 53.840 fold | 
4 | KTINGGGSPHSKAQRQQT |  |  |  |  |  |  |  |  |  |  |  |  |  |  | Fold Enrichment relative to AAV9, Brain (NHP) [1, 15]: 50.998 fold; Fold Enrichment relative to AAV9, DRG (NHP) ([1]; NHP DRG): 0.000 fold; Fold Enrichment relative to AAV9, Heart (NHP) ([1]; NHP heart): 0.041 fold; Fold Enrichment relative to AAV9, Liver DNA (NHP) ([1]; NHP liver, DNA): 0.142 fold; Fold Enrichment relative to AAV9, Liver RNA (NHP) ([1]; NHP liver, RNA): 0.991 fold; Fold Enrichment relative to AAV9, Muscle (NHP) ([1]; NHP muscle): 0.000 fold; Fold Enrichment relative to AAV9, Brain (Mouse) ([2]; mouse brain): 147.942 fold
5 | KTINGGGSPHSKAQSQQI |  | 0.000 fold |  |  |  |  |  | 74.264 fold | 0.000 fold | 0.235 fold | 0.000 fold | 0.000 fold | 67.651 fold |  | 
6 | KTINGGGSPHSKAQTQQI | 92.345 fold | 0.000 fold | 0.000 fold | 0.000 fold | 0.023 fold | 0.000 fold | 0.000 fold | 92.345 fold | 0.000 fold | 0.023 fold | 0.000 fold | 0.000 fold | 54.199 fold | 54.199 fold | 
7 | KTINGGGSPHSKAQYQHT |  |  |  |  |  |  |  |  |  |  |  |  |  |  | Fold Enrichment relative to AAV9, Brain (NHP) [1, 15]: 54.188 fold; Fold Enrichment relative to AAV9, DRG (NHP) ([1]; NHP DRG): 0.000 fold; Fold Enrichment relative to AAV9, Heart (NHP) ([1]; NHP heart): 0.000 fold; Fold Enrichment relative to AAV9, Liver DNA (NHP) ([1]; NHP liver, DNA): 0.223 fold; Fold Enrichment relative to AAV9, Liver RNA (NHP) ([1]; NHP liver, RNA): 0.000 fold; Fold Enrichment relative to AAV9, Muscle (NHP) ([1]; NHP muscle): 0.000 fold; Fold Enrichment relative to AAV9, Brain (Mouse) ([2]; mouse brain): 82.256 fold
8 | KTINGGGSPHSKSQNQHT |  | 0.000 fold |  |  |  |  |  | 67.773 fold | 0.057 fold | 0.220 fold | 0.000 fold | 0.000 fold | 100.748 fold |  | 
9 | KTINGGGSPHSKSQNQLT | 82.231 fold | 0.000 fold | 0.000 fold | 0.070 fold | 0.498 fold | 0.000 fold | 0.000 fold | 82.231 fold | 0.070 fold | 0.498 fold | 0.000 fold | 0.000 fold | 126.986 fold | 126.986 fold | 
10 | KTINGGGSPHSKSQNRQT |  |  |  |  |  |  |  |  |  |  |  |  |  |  | Fold Enrichment relative to AAV9, Brain (NHP) [1, 15]: 51.017 fold; Fold Enrichment relative to AAV9, DRG (NHP) ([1]; NHP DRG): 0.000 fold; Fold Enrichment relative to AAV9, Heart (NHP) ([1]; NHP heart): 0.000 fold; Fold Enrichment relative to AAV9, Liver DNA (NHP) ([1]; NHP liver, DNA): 0.421 fold; Fold Enrichment relative to AAV9, Liver RNA (NHP) ([1]; NHP liver, RNA): 0.000 fold; Fold Enrichment relative to AAV9, Muscle (NHP) ([1]; NHP muscle): 0.000 fold; Fold Enrichment relative to AAV9, Brain (Mouse) ([2]; mouse brain): 149.370 fold
11 | KTINGHDSPHKIGLDQQT | 165.627 fold |  | 0.000 fold | 0.000 fold | 0.000 fold | 1.942 fold | 0.000 fold |  |  |  |  |  |  | 5.469 fold | 
12 | KTINGHDSPHKIGQNQHA | 77.321 fold |  | 0.000 fold | 18.836 fold | 0.132 fold | 0.220 fold | 0.028 fold |  |  |  |  |  |  | 7.578 fold | 
13 | KTINGHDSPHKSAQNYQT | 130.375 fold |  | 0.000 fold | 0.124 fold | 0.123 fold | 0.097 fold | 0.000 fold |  |  |  |  |  |  | 19.443 fold | 
14 | KTINGHDSPHKSGQLVIT | 76.781 fold |  | 0.089 fold | 0.064 fold | 0.475 fold | 0.338 fold | 0.000 fold |  |  |  |  |  |  | 11.323 fold | 
15 | KTINGHDSPHKSGQNKLE | 76.204 fold |  | 0.000 fold | 1.430 fold | 0.031 fold | 0.015 fold | 0.000 fold |  |  |  |  |  |  | 12.419 fold | 
16 | KTINGHDSPHKSGQSKQA | 101.460 fold |  | 0.000 fold | 0.222 fold | 0.114 fold | 0.185 fold | 0.000 fold |  |  |  |  |  |  | 7.510 fold | 
17 | KTINGHDSPHKSGQSVPT | 77.840 fold |  | 0.000 fold | 0.003 fold | 0.061 fold | 0.136 fold | 0.000 fold |  |  |  |  |  |  | 6.768 fold | 
18 | KTINGHDSPHKSGQSVQT | 75.748 fold |  | 0.010 fold | 6.808 fold | 0.058 fold | 0.165 fold | 0.000 fold |  |  |  |  |  |  | 9.321 fold | 
19 | KTINGHDSPHKSGRTQET | 81.599 fold |  | 0.000 fold | 0.062 fold | 0.137 fold | 0.000 fold | 0.000 fold |  |  |  |  |  |  | 7.270 fold | 
20 | KTINGHDSPHKSNAWQQT | 84.825 fold |  | 0.000 fold | 0.016 fold | 0.132 fold | 0.000 fold | 0.000 fold |  |  |  |  |  |  | 15.788 fold | 
